Assay results taken from patent publication US12460262B2, “Methods of detecting, preventing, reversing, and treating neurological diseases” (Washington University, priority 2018, dated 2025).

Experiments:
Aβ secretion = details: in vitro exposure; cited from earlier work
NAGLU-deficient mice = details: cited from earlier work
[1] = tested on: cultured fibroblasts of MPS patients; details: cited from earlier work
ISF Aβ levels = tested on: ISF Aβ levels; parameters: species or system mice; details: mouse, in vivo
Description: To investigate the effect of NAGLU on Aβ generation and clearance, in vivo microdialysis is used to dynamically assess ISF Aβ metabolism in the hippocampus of 5XFAD/NAGLU (+14 5XFAD/NAGLU (−/−) mice and 5XFAD littermates injected with AVV2/9 or PBS at 3-4 months of age. To assess ISF Aβ levels over time in the hippocampus of awake, freely moving mice in vivo microdialysis is performed as previously described. Briefly, under isoflurane anesthesia, a guide cannula is stereotaxically implanted above the hippocampus (3.1 mm behind bregma, 2.5 mm lateral to midline, and 1.2 mm below dura at a 12° angle). A microdialysis probe is inserted through the guide cannula into the brain. Artificial CSF is used as microdialysis perfusion buffer. Microdialysis samples are collected every 60-90 min and are assessed for Aβ40 or Aβ42 by ELISAs. The mean concentration of Aβ over 6 hr is defined as basal concentration of ISF Aβ. For each animal, all Aβ concentrations are normalized to the basal Aβ concentration for that mouse. After basal concentration is determined mice are administered a blood-brain permeable γ-secretase inhibitor (LY411575, 3 mg/kg subcutaneously) to rapidly block the production of Aβ. […] The half-life of ISF Aβ is calculated on the basis of the slope of the semi-log plot of % change in Aβ versus time. […]

**Q.** Which Aβ secretion (Aβ secretion) does the source give for `CO/C1=C\C(C)=C\[C@@H](C)[C@@H](O)[C@@H](C)C/C(C)=C/C=C/[C@H](OC)[C@@H]([C@@H](C)[C@@H](O)[C@H](C)[C@@]2(O)C[C@@H](O)[C@H](C)[C@@H](C(C)C)O2)OC1=O` [bafilomycin A1] here?
**A.** Its Aβ secretion is “reduces Aβ secretion”.

**Q.** Which results are given for `O=c1c(-c2ccc(O)cc2)coc2cc(O)cc(O)c12` [Genistein, 4′,5,7-trihydroxyisoflavone or 5,7-dihydroxy-3-(4-hydroxyphenyl)-4H-1-benzopyran-4-one]?
**A.** lysosomal storage material (NAGLU-deficient mice): reduces lysosomal storage material; synthesis of glycosaminoglycans (GAGs) [1]: inhibits synthesis of glycosaminoglycans (GAGs)

**Q.** For `Cl.N` [ammonium chloride], which Aβ secretion (Aβ secretion) is on record?
**A.** The Aβ secretion was “reduces Aβ secretion”.

**Q.** With `CCN(CC)CCCC(C)Nc1ccnc2cc(Cl)ccc12` (centres unmarked) [Chloroquine] as the molecule, how does the “change of ISF levels of Aβ” value (ISF Aβ levels) read?
**A.** The value was “did not change”.
